Patent US20200323860A1, “METHODS AND MATERIALS FOR TREATING CANCER” (Mayo Foundation for Medical Education and Research, priority 2015, published 2020)

Key:
[1] = test system: Parkin phosphorylation at Ser378; assay: Parkin Ser378 phosphorylation in cells, IP and immunoblot with pS378 antibody; type: cell-based
Description: FIGS. 9A-9K. Parkin Is Phosphorylated by Plk1 at Ser378 and Activated during Mitosis. (A) Cells were synchronized at the G1/S transition by double-thymidine block, and cells were released. Cell were harvested at indicated times and analyzed by immunobloting. (B) Cells were incubated in the absence or presence of nocodazole or CCCP and subjected to immunoblot analysis with the indicated antibodies. (C) Comparison of the sequences surrounding 5378 of Parkin orthologues (SEQ ID NOS 42-47, respectively, in order of appearance). […] Immunoprecipitates were incubated with or without λ phosphatase (PPase) and were analyzed by immunobloting with pS378 antibody. (E) Cells were infected with the indicated constructs, synchronized by nocodazole, and released. Parkin phosphorylation at pS378 was then examined by immunoblot analysis. (F) Cells were transfected with indicated plasmids, and Parkin phosphorylation at pS378 was examined. (G) In vitro kinase assay of Parkin by Plk1. Parkin phosphorylation was visualized by pS378 Parkin antibody. (H) Cells were transfected with the indicated plasmids, and then treated with nocodazole. Cell lysates were then blotted with the indicated antibodies. (I) in vitro ubiquitination of Cyclin B1, Securin and Nek2A by WT Parkin and mutants (S65A, S65D, S378A and S378D). […] Samples were analyzed by immunobloting with anti-Cyclin B1, Securin and Nek2A antibody. […]

[2] = test system: Parkin-deficient lung cancer cell lines; assay: Growth inhibition of Parkin-deficient lung cancer cell lines; type: cell-based, human; details: BI 2536 100 nM or VX-680 50 nM for 72 hours; BI 2536 dose dependent for 3 days (FIG. 13C-13F)
Description: (§1) FIG. 13A-13F. […] (A and B) Parkin WT and KO MEFs under various condition were analyzed for foci formation assay, number of cell growth, SA-β-gal staining for senescence, colony formation assay. Cells were infected or treated with the indicated constructs or chemical and stained (A, left). Cells were infected with the indicated constructs and stained (B, left). Quantification of (left panel) with stained cell intensity results represent the means (±S.E.) of three independent experiments performed in triplicate (right). *, p<0.05, **, p<0.01 and ***, p<0.001 by one-way ANOVA. […] Quantification of cell numbers results represent the means (±S.E.) of three independent experiments performed in triplicate. ***, p<0.001 by one-way ANOVA.
(§2) All cell lines were sourced from commercial venders. […] Three normal lung (2 fibroblasts, IMR-90 and WI-38; 1 epithelial cells; BEAS-2B) cells, six NSCLCs (4 adenocarcinoma, H1437, H522, H1650 and A549; 2 large cell carcinoma, H460 and H1299), and one SCLC (H196) cells were maintained in Eagle's minimal essential media (EMEM, Gibco-Invitrogen, Grand Island, N.Y.). The human lung fibroblast IMR-90 and WI-38 cells were obtained from the American Type Culture Collection (ATCC, Manassas, Va.), and cells ranging from 29 to 34 in population doubling level (PDL) were used. […]

Parkin KO MEFs = assay: Transformation and escaped senescence of Parkin KO MEFs (foci formation, cell growth, SA-β-gal staining, colony formation); type: cell-based, mouse; details: FIG. 13A
Description: FIG. 13A-13F. Transformed and escape senescence events in Parkin KO MEFs were reversed by expressing WT Parkin or downregulation of Plk1 but not C431S or S378A, related to FIGS. 6. (A and B) Parkin WT and KO MEFs under various condition were analyzed for foci formation assay, number of cell growth, SA-β-gal staining for senescence, colony formation assay. Cells were infected or treated with the indicated constructs or chemical and stained (A, left). Cells were infected with the indicated constructs and stained (B, left). Quantification of (left panel) with stained cell intensity results represent the means (±S.E.) of three independent experiments performed in triplicate (right). *, p<0.05, **, p<0.01 and ***, p<0.001 by one-way ANOVA. […] Quantification of cell numbers results represent the means (±S.E.) of three independent experiments performed in triplicate. ***, p<0.001 by one-way ANOVA.
For colony formation or foci assay, early-passage MEFs (passage 5) cells were plated at low density into 60-mm cell culture plates. When sufficient colonies were visible, typically after 2-3 weeks, cells were washed twice in PBS before fixing in ice-cold 70% methanol for 30 minutes, stained by 0.2% Crystal violet for 2-3 hours. The following day cells were rinsed in PBS and air-dried. […]

[3] = test system: Parkin KO MEF tumors in nude mice; assay: Mouse xenograft tumor model with Parkin WT or KO MEFs; type: in vivo; details: tumors with Parkin-deficiency, i.v., 20 mg/kg twice weekly, four cycles
Description: FIGS. 11A-11H. Parkin Is A Key Mitotic Regulator Functioning as a Tumor Suppressor. (A) Cells were transfected with the indicated plasmids, and mitotic cells were analyzed by immunoblot for the indicated proteins. (B) Schematic of the experiments. (C) A549 cells stably transfected with doxycycline-inducible constructs encoding WT Parkin or mutant Parkin (S378A and S378D) were treated with doxycycline and subjected to IP and immunoblot as indicated (Top), in vivo ubiquitination (Bottom). (D) Athymic nude mice were injected subcutaneously with A549 cells stably-transfected with vector or doxycycline-inducible Parkin constructs (WT, S378A and S378D). […] Tumor growth was measured at the indicated times after injection. n=5 for each group. […] Tumor volumes (mm^3) were measured at the indicated times after injection (Bottom). *, p<0.05, **, p<0.01 and ***, p<0.001 by two-way ANOVA. […]
For MEF xenograft experiments, equal numbers (1×10^6 cells) of Parkin WT or KO MEF cells expressing luciferase mixed at a 1:1 dilution with matrigel (Collaborative Research) were implanted in the backs of athymic nude mice. Tumor growth was monitored using calipers and visualized with a bioluminescence-based IVIS system (Caliper LifeScience). […] Tumour growth was measured using a vernier caliper at the indicated times after injection, and the tumor volume was calculated as length×width×height. […]

[4] = test system: lung normal fibroblast (WI-38 and IMR 90 cells); assay: Growth inhibition of normal lung fibroblasts; type: cell-based, human; details: WI-38 and IMR 90 cells (FIG. 13E and 13F)
Description: as §1, §2

[5] = test system: binding of Parkin to Cdc20; assay: Parkin-Cdc20 binding in cells, IP-immunoblot; type: cell-based; details: cells treated with chemical, with or without nocodazole (FIG. 9J)
[6] = test system: Parkin WT or KO MEF cells; assay: Sensitivity of Parkin WT or KO MEF cells to BI […], crystal violet staining; type: cell-based, mouse; details: FIG. 11F
Description: (A) Cells were transfected with the indicated plasmids, and mitotic cells were analyzed by immunoblot for the indicated proteins. […] (C) A549 cells stably transfected with doxycycline-inducible constructs encoding WT Parkin or mutant Parkin (S378A and S378D) were treated with doxycycline and subjected to IP and immunoblot as indicated (Top), in vivo ubiquitination (Bottom). (D) Athymic nude mice were injected subcutaneously with A549 cells stably-transfected with vector or doxycycline-inducible Parkin constructs (WT, S378A and S378D). Two days after injection, doxycycline was administered in drinking water. Tumor growth was measured at the indicated times after injection. n=5 for each group. […] Tumor volumes (mm^3) were measured at the indicated times after injection (Bottom). *, p<0.05, **, p<0.01 and ***, p<0.001 by two-way ANOVA. (E) Cells were infected with the indicated constructs and were collected for FACS analysis. […] Results represent the means (±S.E.) of three experiments performed in triplicate. *, p<0.05 and ***, p<0.001 versus Parkin WT MEFs by one-way ANOVA (Right). […] Mean transformed MEFs volumes for Parkin KO are shown. ***, p<0.001 and ****, p<0.0001 versus Parkin WT MEFs by two-way ANOVA.
For colony formation or foci assay, early-passage MEFs (passage 5) cells were plated at low density into 60-mm cell culture plates. […]

CC[C@@H]1C(=O)N(C)c2cnc(Nc3ccc(C(=O)NC4CCN(C)CC4)cc3OC)nc2N1C1CCCC1 [BI 2536, (R)-4-(8-cyclopentyl-7-ethyl-5-methyl-6-oxo-5,6,7,8-tetrahydropteridin-2-ylamino)-3-methoxy-N-(1-methylpiperidin-4-yl)benzamide]
Parkin phosphorylation at Ser378 ([1]; nocodazole-arrested mitotic cells, with Plk1 inhibitor (FIG. 9D)): blocked Parkin phosphorylation at Ser378
sensitivity (growth inhibition) of Parkin-deficient lung cancer cell lines [2]: significantly sensitive
escaped senescence and transformation induced by Parkin depletion (Parkin KO MEFs): transformation was abolished
tumor inhibition in vivo [3]: excellent tumor inhibition
sensitivity (growth inhibition) of lung normal fibroblasts [4]: but not lung normal fibroblasts
binding of Parkin to Cdc20 [5]: decreased binding of Parkin to Cdc20
transformation of Parkin KO MEFs [6]: inhibited transformation of Parkin KO MEFs

N#CC(C#N)=NNc1cccc(Cl)c1 [CCCP, carbonyl cyanide m-chlorophenylhydrazone]
Ser 378 phosphorylation of Parkin ([1]; cells incubated with CCCP (FIG. 9B)): did not affect Ser 378 phosphorylation

Cc1cc(Nc2cc(N3CCN(C)CC3)nc(Sc3ccc(NC(=O)C4CC4)cc3)n2)n[nH]1 [VX 680, N-(4-(4-(5-methyl-1H-pyrazol-3-ylamino)-6-(4-methylpiperazin-1-yl)pyrimidin-2-ylthio)phenyl)-cyclopropanecarboxamide]
sensitivity (growth inhibition) of Parkin-deficient lung cancer cell lines [2]: significantly sensitive
sensitivity (growth inhibition) of lung normal fibroblasts [4]: but not lung normal fibroblasts
